Reference: the supplement of paper PMC10627819

Key:
B. subtilis 168 [1] = experiment: fitness (endpoint OD595 vs no drug) (fraction); higher = more growth
Summary of the method: (§1)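 Bacterial fitness was scored as optical density at the stationary-phase transition relative to the robust mean of no-drug control wells. Scores are capped at 1. The growth data were OD595 readings every 30 min for 14 h at 37 °C, background-subtracted against the first reading, from 384-well plates inoculated at OD595 0.01 in TSB, LB Lennox or CY.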

B. subtilis 168 [2] = experiment: Bliss interaction score (quartile over a dose matrix) (fitness difference); higher = more antagonism (negative = synergy)
Summary of the method: (§2)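 Each OD595 reading at entry into stationary phase was scaled to the robust mean of the untreated wells on its plate, with a ceiling of 1. These ratios define fitness, and single-drug fitness was inferred from combinations. The Bliss score compares observed fitness with the product-based expectation and is reported as quartiles across all replicate types, technical, biological and donor/recipient.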

S. aureus DSM 20231 = experiment: as above
Summary of the method: as §2

S. pneumoniae D39V [3] = experiment: as above
Summary of the method: as §2

S. aureus Newman = experiment: as above
Summary of the method: as §2

S. pneumoniae D39V [4] = experiment: fitness (endpoint OD595 vs no drug) (fraction); higher = more growth
Summary of the method: as §1
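Wherever Bliss interaction score (quartile over a dose matrix) is given: first quartile when negative (synergy) and third quartile when positive (antagonism).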
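Wherever fitness (endpoint OD595 vs no drug) is given: OD595 on entry to stationary phase over no-drug wells; at most 1.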

C[C@H]1COc2c(N3CCN(C)CC3)c(F)cc3c(=O)c(C(=O)O)cn1c23 [Levofloxacin] + CO[C@@H]1[C@@H](OC(N)=O)[C@@H](O)[C@H](Oc2ccc3c(O)c(NC(=O)c4ccc(O)c(CC=C(C)C)c4)c(=O)oc3c2C)OC1(C)C [Novobiocin]
fitness, B. subtilis 168 [1], one replicate
Conditions	partner 0.05 µg/mL	partner 0.1 µg/mL	partner 0.125 µg/mL	partner 0.2 µg/mL	partner 0.25 µg/mL	partner 0.5 µg/mL
first compound 0.001 µg/mL	≥ 1	≥ 1	–	≥ 1	–	–
first compound 0.002 µg/mL	0.929	0.952	0.908	0.933	0.874	0.493
first compound 0.0039 µg/mL	0.965	≥ 1	0.839	0.928	0.808	0.505
first compound 0.0078 µg/mL	–	–	0.864	–	0.808	0.457

fitness, B. subtilis 168 [1]
Conditions	first compound 0.0312 µg/mL	first compound 0.0625 µg/mL	first compound 0.125 µg/mL
partner 0.0125 µg/mL	0.0275	0.0273	0.0195
partner 0.025 µg/mL	0.0255	0.0301	0.0265
partner 0.05 µg/mL	0.028	0.0286	0.0286

Conditions	Bliss interaction score
B. subtilis 168 [2]	-0.0305
S. aureus DSM 20231	-0.0698
S. aureus Newman	-0.091
S. pneumoniae D39V [3]	-0.121

C[C@H]1COc2c(N3CCN(C)CC3)c(F)cc3c(=O)c(C(=O)O)cn1c23 [Levofloxacin] + COc1cc(Cc2cnc(N)nc2N)cc(OC)c1OC [Trimethoprim]
B. subtilis 168 [1], one replicate
Conditions	fitness
first compound 0.001 µg/mL, partner 0.125 µg/mL	0.528
first compound 0.001 µg/mL, partner 0.25 µg/mL	0.41
first compound 0.001 µg/mL, partner 0.5 µg/mL	0.456
first compound 0.002 µg/mL, partner 0.1 µg/mL	0.907
first compound 0.002 µg/mL, partner 0.2 µg/mL	0.804
first compound 0.002 µg/mL, partner 0.4 µg/mL	0.572
first compound 0.0039 µg/mL, partner 0.1 µg/mL	0.884
first compound 0.0039 µg/mL, partner 0.2 µg/mL	0.745
first compound 0.0039 µg/mL, partner 0.4 µg/mL	0.548
first compound 0.0078 µg/mL, partner 0.1 µg/mL	0.872
first compound 0.0078 µg/mL, partner 0.125 µg/mL	0.736
first compound 0.0078 µg/mL, partner 0.2 µg/mL	0.696
first compound 0.0078 µg/mL, partner 0.4 µg/mL	0.521
first compound 0.0312 µg/mL, partner 1 µg/mL	0.0312
first compound 0.0312 µg/mL, partner 2 µg/mL	0.0414
first compound 0.0625 µg/mL, partner 1 µg/mL	0.0468
first compound 0.0625 µg/mL, partner 2 µg/mL	0.0379
first compound 0.125 µg/mL, partner 1 µg/mL	0.0309
first compound 0.125 µg/mL, partner 2 µg/mL	0.0616

fitness, B. subtilis 168 [1]
Conditions	first compound 0.002 µg/mL	first compound 0.0039 µg/mL	first compound 0.0078 µg/mL	first compound 0.0312 µg/mL	first compound 0.0625 µg/mL	first compound 0.125 µg/mL
partner 0.125 µg/mL	0.554	0.564	–	–	–	–
partner 0.25 µg/mL	–	–	0.689	–	–	–
partner 0.5 µg/mL	0.423	0.414	0.494	0.0339	0.0357	0.0365

Conditions	Bliss interaction score
B. subtilis 168 [2]	0.0693
S. aureus DSM 20231	-0.0537
S. aureus Newman	-0.109
S. pneumoniae D39V [3]	-0.112

CN(C)C(=O)C(CCN1CCC(O)(c2ccc(Cl)cc2)CC1)(c1ccccc1)c1ccccc1 [Loperamide] + CO[C@@H]1[C@@H](OC(N)=O)[C@@H](O)[C@H](Oc2ccc3c(O)c(NC(=O)c4ccc(O)c(CC=C(C)C)c4)c(=O)oc3c2C)OC1(C)C [Novobiocin]
B. subtilis 168 [1], first compound 25 µg/mL
Conditions	fitness
partner 0.0125 µg/mL	0.889
partner 0.025 µg/mL	0.85
partner 0.05 µg/mL	0.86

fitness, B. subtilis 168 [1], one replicate
Conditions	first compound 25 µg/mL	first compound 50 µg/mL	first compound 100 µg/mL
partner 0.125 µg/mL	0.703	0.028	0.0375
partner 0.25 µg/mL	0.274	0.0063	0.0267
partner 0.5 µg/mL	0.186	0.0466	0.0548

Conditions	Bliss interaction score
B. subtilis 168 [2]	0.205
S. aureus DSM 20231	-0.0535
S. aureus Newman	-0.0759
S. pneumoniae D39V [3]	-0.113

CCCCCCCCCC(=O)N[C@@H](Cc1c[nH]c2ccccc12)C(=O)N[C@H](CC(N)=O)C(=O)N[C@@H](CC(=O)O)C(=O)N[C@@H]1C(=O)NCC(=O)N[C@@H](CCCN)C(=O)N[C@@H](CC(=O)O)C(=O)N[C@H](C)C(=O)N[C@@H](CC(=O)O)C(=O)NCC(=O)N[C@H](CO)C(=O)N[C@@H]([C@H](C)CC(=O)O)C(=O)N[C@@H](CC(=O)c2ccccc2N)C(=O)O[C@@H]1C [Daptomycin] + CO[C@@H]1[C@@H](OC(N)=O)[C@@H](O)[C@H](Oc2ccc3c(O)c(NC(=O)c4ccc(O)c(CC=C(C)C)c4)c(=O)oc3c2C)OC1(C)C [Novobiocin]
fitness, B. subtilis 168 [1]
Conditions	first compound 0.125 µg/mL	first compound 0.25 µg/mL	first compound 0.5 µg/mL
partner 0.0125 µg/mL	0.94	0.981	0.899
partner 0.025 µg/mL	0.916	0.94	0.867
partner 0.05 µg/mL	0.968	0.984	0.902

fitness, B. subtilis 168 [1], one replicate
Conditions	partner 0.05 µg/mL	partner 0.1 µg/mL	partner 0.125 µg/mL	partner 0.2 µg/mL	partner 0.25 µg/mL	partner 0.5 µg/mL
first compound 0.125 µg/mL	–	–	0.958	–	0.954	0.649
first compound 0.25 µg/mL	–	0.96	≥ 1	0.957	≥ 1	0.579
first compound 0.5 µg/mL	–	0.94	≥ 1	0.936	0.965	0.288
first compound 1 µg/mL	0.738	0.791	–	0.759	–	–

Conditions	Bliss interaction score
B. subtilis 168 [2]	0.0788
S. aureus DSM 20231	0.0439
S. aureus Newman	0.0984
S. pneumoniae D39V [3]	0.0661

CC1(C)S[C@@H]2[C@H](NC(=O)[C@H](N)c3ccc(O)cc3)C(=O)N2[C@H]1C(=O)O [Amoxicillin] + CO[C@H]1/C=C/O[C@@]2(C)Oc3c(C)c(O)c4c(O)c(c(/C=N/N5CCN(C)CC5)c(O)c4c3C2=O)NC(=O)/C(C)=C\C=C\[C@H](C)[C@H](O)[C@@H](C)[C@@H](O)[C@@H](C)[C@H](OC(C)=O)[C@@H]1C [Rifampicin]
S. pneumoniae D39V [4], partner 0.025 µg/mL
Conditions	fitness
first compound 0.0008 µg/mL	0.925
first compound 0.0015 µg/mL	0.917
first compound 0.003 µg/mL	0.905

S. pneumoniae D39V [4], one replicate
Conditions	fitness
first compound 0.0008 µg/mL, partner 0.2 µg/mL	0
first compound 0.0015 µg/mL, partner 0.2 µg/mL	0
first compound 0.003 µg/mL, partner 0.2 µg/mL	0
first compound 0.006 µg/mL, partner 0.025 µg/mL	0.468
first compound 0.006 µg/mL, partner 0.05 µg/mL	0.546
first compound 0.006 µg/mL, partner 0.1 µg/mL	0.261

Conditions	Bliss interaction score
B. subtilis 168 [2]	0.0837
S. aureus DSM 20231	0.133
S. aureus Newman	0.073
S. pneumoniae D39V [3]	0.0783
